Experimental data from patent US11697646B2, “Triazole N-linked carbamoyl cyclohexyl acids as LPA antagonists” (BRISTOL-MYERS SQUIBB COMPANY, priority 2017, dated 2023).

Assays:
IPF patients = details: 26-week clinical trial in IPF patients; cited from earlier work
plasma histamine = assay: LPA challenge with plasma histamine evaluation (acute in vivo histamine assay); details: 1 mg/kg dose
Description: LPA Challenge with Plasma Histamine Evaluation.
Compound is dosed orally p.o. 2 hours to CD-1 female mice prior to the LPA challenge. The mice are then dosed via tail vein (IV) with 0.15 mL of LPA in 0.1% BSA/PBS (2 μg/μL). Exactly 2 minutes following the LPA challenge, the mice are euthanized by decapitation and the trunk blood is collected. These samples are collectively centrifuged and individual 75 μL samples are frozen at −20° C. until the time of the histamine assay.
The plasma histamine analysis was run by standard EIA (Enzyme Immunoassay) methods. Plasma samples were thawed and diluted 1:30 in 0.1% BSA in PBS. The EIA protocol for histamine analysis as outlined by the manufacturer was followed (Histamine EIA, Oxford Biomedical Research, EA #31).
The LPA used in the assay is formulated as follows: LPA (1-oleoyl-2-hydroxy-sn-glycero-3-phosphate (sodium salt), 857130P, Avanti Polar Lipids) is prepared in 0.1% BSA/PBS for total concentration of 2 μg/μL, 13 mg of LPA is weighed and 6.5 mL 0.1% BSA added, vortexed and sonicated for −1 hour until a clear solution is achieved.

human LPA1 = target: T1, human LPA1 (Homo sapiens, UniProt Q92633); assay: LPA1 functional antagonist assay (calcium flux); format: cell-based; details: CHO cells overexpressing human LPA1; calcium flux induced by 10 nM LPA; read-out: hLPA1 IC50
T1 construct: expressed in transfected cells; host or cells: Chinese hamster ovary (CHO) cells
Description: The effectiveness of compounds of the present invention as LPA1 inhibitors can be determined in an LPA1 functional antagonist assay as follows:
The cells were then equilibrated to room temperature for 30 minutes before the assay. […] IC50 values were determined by fitting data to a 4-parameter logistic equation (GraphPad Prism, San Diego Calif.).

nerve-injured mice = details: pretreatment; cited from earlier work
[1] = tested on: mouse epithelial renal cell line, MCT; details: LPA treatment of MCT cells, co-treatment; cited from earlier work
[2] = tested on: highly peritoneal metastatic pancreatic cancer cell line; details: LPA-induced and ascites-induced; cited from earlier work
UUO mice = details: cited from earlier work
[3] = tested on: pancreatic cancer cell lines; details: in response to LPA and peritoneal fluid (ascites) from pancreatic cancer patients; cited from earlier work
[4] = tested on: human foetal lung fibroblasts; details: induced by BAL obtained from IPF patients; cited from earlier work

T1 sequence (Q92633 whole entry): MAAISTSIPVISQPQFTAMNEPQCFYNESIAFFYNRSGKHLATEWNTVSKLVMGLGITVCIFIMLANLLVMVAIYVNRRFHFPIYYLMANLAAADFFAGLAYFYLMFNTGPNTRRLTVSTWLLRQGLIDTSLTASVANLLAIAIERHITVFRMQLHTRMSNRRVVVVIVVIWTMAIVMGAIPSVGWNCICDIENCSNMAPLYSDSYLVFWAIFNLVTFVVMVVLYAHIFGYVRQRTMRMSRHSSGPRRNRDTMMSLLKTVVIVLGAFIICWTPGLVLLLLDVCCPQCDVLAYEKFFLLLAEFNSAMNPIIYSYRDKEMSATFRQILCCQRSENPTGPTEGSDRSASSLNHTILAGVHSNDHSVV

SMILES: Cc1noc(-c2ccc(-c3ccc(C4(C(=O)O)CC4)cc3)cc2)c1NC(=O)O[C@H](C)c1ccccc1 [BMS-986020]
- rate of FVC (forced vital capacity) decline (IPF patients): significantly reduce

SMILES: Cc1nc(-c2nnn(C)c2CNC(=O)OCc2ccccc2)ccc1O[C@H]1CCC[C@H](C(=O)O)C1 [Example 34, (1S,3S)-3-((6-(5-((((benzyloxy)carbonyl)amino)methyl)-1-methyl-1H-1,2,3-triazol-4-yl)-2-methylpyridin-3-yl)oxy)cyclohexane-1-carboxylic acid]
- acute in vivo histamine assay in CD-1 mice: % histamine (plasma histamine): −96%
- IC50 (human LPA1): 9 nM

SMILES: CCCCOC(=O)Nc1c(-c2ccc(O[C@H]3CCC[C@H](C(=O)O)C3)c(C)n2)nnn1C [Example 222, (1S,3S)-3-((6-(5-((butoxycarbonyl)amino)-1-methyl-1H-1,2,3-triazol-4-yl)-2-methylpyridin-3-yl)oxy)cyclohexane-1-carboxylic acid]
- IC50 (human LPA1): 21 nM

SMILES: Cc1nc(-c2nnn(C)c2NC(=O)OCC2(C)CC2)ccc1O[C@H]1CCC[C@H](C(=O)O)C1 [Example 224, (1S,3S)-3-((2-methyl-6-(1-methyl-5-((((1-methylcyclopropyl)methoxy)carbonyl)amino)-1H-1,2,3-triazol-4-yl)pyridin-3-yl)oxy)cyclohexane-1-carboxylic acid]
- IC50 (human LPA1): 60 nM

SMILES: Cc1nc(-c2nnn(C)c2NC(=O)OC2CC3(CC3)C2)ccc1O[C@H]1CCC[C@H](C(=O)O)C1 [Example 225, (1S,3S)-3-((2-methyl-6-(1-methyl-5-(((spiro[2.3]hexan-5-yloxy)carbonyl)amino)-1H-1,2,3-triazol-4-yl)pyridin-3-yl)oxy)cyclohexane-1-carboxylic acid]
- IC50 (human LPA1): 181 nM

SMILES: Cc1nc(-c2nnn(C)c2CNS(=O)(=O)NCC2CCCC2)ccc1O[C@H]1CCC[C@H](C(=O)O)C1 [Example 226, (1S,3S)-3-((6-(5-(((N-(cyclopentylmethyl)sulfamoyl)amino)methyl)-1-methyl-1H-1,2,3-triazol-4-yl)-2-methylpyridin-3-yl)oxy)cyclohexane-1-carboxylic acid]
- IC50 (human LPA1): 1100 nM

SMILES: Cc1nc(-c2nnn(C)c2CNS(=O)(=O)NCc2ccccc2)ccc1O[C@H]1CCC[C@H](C(=O)O)C1 [Example 227, (1S,3S)-3-((6-(5-(((N-benzyl-sulfamoyl)amino)methyl)-1-methyl-1H-1,2,3-triazol-4-yl)-2-methyl-pyridin-3-yl)oxy)cyclohexane-1-carboxylic acid]
- IC50 (human LPA1): 1800 nM

SMILES: Cc1nc(-c2nnn(C)c2CN(C)S(=O)(=O)N(C)Cc2ccccc2)ccc1O[C@H]1CCC[C@H](C(=O)O)C1 [Example 228, (1S,3S)-3-((6-(5-(((N-benzyl-N-methyl-sulfamoyl)(methyl)amino)methyl)-1-methyl-1H-1,2,3-triazol-4-yl)-2-methylpyridin-3-yl)oxy)cyclohexane-1-carboxylic acid]
- IC50 (human LPA1): 218 nM

SMILES: CCCCN(C)S(=O)(=O)N(C)Cc1c(-c2ccc(O[C@H]3CCC[C@H](C(=O)O)C3)c(C)n2)nnn1C [Example 229, (1S,3S)-3-((6-(5-(((N-butyl-N-methyl-sulfamoyl)(methyl)amino)methyl)-1-methyl-1H-1,2,3-triazol-4-yl)-2-methylpyridin-3-yl)oxy)cyclohexane-1-carboxylic acid]
- IC50 (human LPA1): 110 nM

SMILES: CCc1nc(-c2nnn(C)c2NC(=O)OCC(C)C)ccc1O[C@H]1CCC[C@H](C(=O)O)C1 [Example 230, (1S,3S)-3-{[2-ethyl-6-(1-methyl-5-{[(2-methylpropoxy)carbonyl]amino}-1H-1,2,3-triazol-4-yl)pyridin-3-yl]oxy}cyclohexane-1-carboxylic acid]
- IC50 (human LPA1): 17 nM

SMILES: CCc1nc(-c2nnn(C)c2NC(=O)OCC2CC2)ccc1O[C@H]1CCC[C@H](C(=O)O)C1 [Example 231, (1S,3S)-3-{[6-(5-{[(cyclopropyl-methoxy)carbonyl}amino}-1-methyl-1H-1,2,3-triazol-4-yl)-2-ethylpyridin-3-yl]oxy}cyclohexane-1-carboxylic acid]
- IC50 (human LPA1): 28 nM

SMILES: CCCCOC(=O)Nc1c(-c2ccc(O[C@H]3CCC[C@H](C(=O)O)C3)c(CC)n2)nnn1C [Example 232, (1 S,3 S)-3-[(6-{5-[(butoxycarbonyl)amino]-1-methyl-1H-1,2,3-triazol-4-yl}-2-ethylpyridin-3-yl)oxy]cyclo-hexane-1-carboxylic acid]
- IC50 (human LPA1): 12 nM

SMILES: CCCOC(=O)Nc1c(-c2ccc(O[C@H]3CCC[C@H](C(=O)O)C3)c(CC)n2)nnn1C [Example 233, (1S,3S)-3-[(2-ethyl-6-{1-methyl-5-[(propoxycarbonyl)amino]-1H-1,2,3-triazol-4-yl}pyridin-3-yl)oxy]cyclo-hexane-1-carboxylic acid]
- IC50 (human LPA1): 1040 nM

SMILES: Cc1nc(-c2nnn(C)c2CNC(=O)C(C)(C)Oc2ccccc2)ccc1O[C@H]1CCC[C@H](C(=O)O)C1 [Example 234, (1S,3S)-3-((2-methyl-6-(1-methyl-5-((2-methyl-2-phenoxypropanamido)methyl)-1H-1,2,3-triazol-4-yl)pyridin-3-yl)oxy)cyclohexane-1-carboxylic acid]
- IC50 (human LPA1): 392 nM

SMILES: Cc1nc(-c2nnn(C)c2CNC(=O)CC2CCCC2)ccc1O[C@H]1CCC[C@H](C(=O)O)C1 [Example 235, (1S,3S)-3-((6-(5-((2-cyclopentylacetamido)methyl)-1-methyl-1H-1,2,3-triazol-4-yl)-2-methylpyridin-3-yl)oxy)cyclohexanecarboxylic acid]
- IC50 (human LPA1): 105 nM

SMILES: Cn1nnc(-c2ccc(O[C@H]3CCC[C@H](C(=O)O)C3)cn2)c1CNC(=O)CC1CCCC1 [Example 236, (1S,3S)-3-((6-(5-((2-cyclopentylacetamido)methyl)-1-methyl-1H-1,2,3-triazol-4-yl)pyridin-3-yl)oxy)cyclohexanecarboxylic acid]
- IC50 (human LPA1): 569 nM

SMILES: CCCCC(=O)NCc1c(-c2ccc(O[C@H]3CCC[C@H](C(=O)O)C3)c(C)n2)nnn1C [Example 237, (1S,3S)-3-((2-methyl-6-(1-methyl-5-(pentanamidomethyl)-1H-1,2,3-triazol-4-yl)pyridin-3-yl)oxy)cyclo-hexanecarboxylic acid]
- IC50 (human LPA1): 783 nM

SMILES: Cc1nc(-c2nnn(C)c2CCNC(=O)Cc2ccccc2)ccc1O[C@H]1CCC[C@H](C(=O)O)C1 [Example 238, (1S,3S)-3-((2-methyl-6-(1-methyl-5-(2-(2-phenylacetamido)ethyl)-1H-1,2,3-triazol-4-yl)pyridin-3-yl)oxy)cyclohexane-1-carboxylic acid]
- IC50 (human LPA1): 138 nM

SMILES: Cc1nc(-c2nnn(C)c2CCNC(=O)CCC(C)C)ccc1O[C@H]1CCC[C@H](C(=O)O)C1 [Example 240]
- IC50 (human LPA1): 1010 nM

SMILES: C[C@@H](N)[C@H]1CC[C@H](C(=O)Nc2ccncc2)CC1 [Example Y-27632]
- allodynia and hyperalgesia (nerve-injured mice): completely abolished

SMILES: Cc1noc(-c2ccc(CSCCC(=O)O)cc2)c1NC(=O)OC(C)c1ccccc1Cl (centres unmarked) [Ki16425]
- induction of CTGF expression [1]: almost completely suppressed
- invasion activity [2]: blocked
- development of renal fibrosis (UUO mice): closely resembled the profile of LPA1 (−/−) mice
- in vitro migration [3]: effectively blocked
- chemotaxis of human foetal lung fibroblasts [4]: blocked
